The target in experiment [1] is ROCK2 (Homo sapiens (Human), UniProt O75116). As to the kind of experiment: Rho Kinase Inhibition Assay (IMAP fluorescence polarization). Format: biochemical. The following applies: isolated enzyme, 10 μM ATP, 60 minutes at room temperature. Background: Fluorescence polarisation rises when a labelled molecule tumbles more slowly, as on binding a larger partner.
Experiment [2] has as its system NIH/3T3 cells. Put plainly: NIH/3T3 Cell Morphology Assay (actin disruption). Format: cell-based. Particulars: 1 μM test compound, 60 minutes at 37° C.; score of actin cytoskeleton disruption from 0 (no effect) to 4 (complete disruption), average of at least 2 determinations. As for the experimental part:
NIH/3T3 cells were grown in DMEM-H containing glutamine and 10% Colorado Calf Serum. Cells were passaged regularly prior to reaching confluence. Eighteen to 24 hours prior to experimentation, the cells were plated onto Poly-L-Lysine-coated glass bottom 24-well plates. On the day of experimentation, the cell culture medium was removed and was replaced with the same medium containing from 10 nM to 25 μM of the test compound, and the cells were incubated for 60 minutes at 37° C. The culture medium was then removed and the cells were washed with warmed PBS and fixed for 10 minutes with warmed 4% paraformaldehyde. The cells were permeabilized with 0.5% Triton-X, stained with TRITC-conjugated phalloidin and imaged using a Nikon Eclipse E600 epifluorescent microscope to determine the degree of actin disruption. Results were expressed as a numerical score indicating the observed degree of disruption of the actin cytoskeleton at the test concentration, ranging from 0 (no effect) to 4 (complete disruption), and were the average of at least 2 determinations.
All compounds tested show measurable activity in the cell morphology assay, with most of the compounds providing substantial effects on the actin cytoskeleton at the testing concentration (score of 2 at 1 μM). […] These morphology changes are thought to provide the basis for the beneficial pharmacological effects sought in the setting of the disease processes described in this application, specifically the lowering of elevated IOP in hypertensive eyes via increased outflow through the trabecular meshwork.

As usually defined, the pIC50 is −log10 of the IC50, conventionally taken in molar units. Read a low pIC50 as a large IC50.

Molecules are shown by their SMILES. pIC50: −log10 of the molar value.

Sequence of ROCK2 (O75116 11-552): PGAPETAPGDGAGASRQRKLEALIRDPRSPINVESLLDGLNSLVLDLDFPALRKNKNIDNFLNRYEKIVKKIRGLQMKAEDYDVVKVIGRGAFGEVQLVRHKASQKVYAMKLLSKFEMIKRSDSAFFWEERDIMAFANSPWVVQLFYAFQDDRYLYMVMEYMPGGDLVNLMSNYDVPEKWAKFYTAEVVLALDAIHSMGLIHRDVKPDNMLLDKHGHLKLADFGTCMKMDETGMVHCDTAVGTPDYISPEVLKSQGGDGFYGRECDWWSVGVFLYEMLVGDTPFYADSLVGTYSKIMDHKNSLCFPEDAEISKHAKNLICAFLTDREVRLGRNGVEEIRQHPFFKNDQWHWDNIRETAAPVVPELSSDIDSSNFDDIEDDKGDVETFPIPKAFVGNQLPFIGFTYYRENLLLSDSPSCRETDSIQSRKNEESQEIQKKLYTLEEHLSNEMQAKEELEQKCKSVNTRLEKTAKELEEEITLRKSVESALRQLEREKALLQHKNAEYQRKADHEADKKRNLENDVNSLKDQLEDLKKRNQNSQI

On to `N#Cc1cccc(CN2CCCC(Nc3ccc4[nH]ncc4c3)C2)c1` (centres unmarked) [Compound 1.002, 3-((3-(1H-indazol-5-ylamino)piperidin-1-yl)methyl)benzonitrile], for which the pIC50 in experiment [1] is 5.91. Moreover, the “Cell score at 1 μM” value in experiment [2] worked out at 1.4. The corresponding values for `N#Cc1cccc(CN2CCC(Nc3ccc4[nH]ncc4c3)C2)c1` (centres unmarked) [Compound 1.005, 3-((3-(1H-indazol-5-ylamino)pyrrolidin-1-yl)methyl)benzonitrile] are 5.64 and 1.3. In experiment [1], `CC(=O)Nc1ccc(CN2CCC(Nc3ccc4[nH]ncc4c3)C2)cc1` (centres unmarked) [Compound 1.006, N-(4-((3-(1H-indazol-5-ylamino)pyrrolidin-1-yl)methyl)phenyl)acetamide] showed a pIC50 of 5.56. In addition, in experiment [2], the “Cell score at 1 μM” value is given as 2. The compound `CS(=O)(=O)c1ccc(CN2CCCC(Nc3cccc4cnccc34)C2)cc1` (centres unmarked) [Compound 2.002, N-(1-(4-(methylsulfonyl)benzyl)piperidin-3-yl)isoquinolin-5-amine] had a pIC50 in experiment [1] of 5.59. Moreover, the “Cell score at 1 μM” value in experiment [2] is on record as 1.8. The corresponding values for `CC(=O)Nc1ccc(CN2CCC(Nc3cccc4cnccc34)C2)cc1` (centres unmarked) [Compound 2.008, N-(4-((3-(isoquinolin-5-ylamino)pyrrolidin-1-yl)methyl)phenyl)acetamide] are 5.44 and 1. As for `CSc1ccc(CN2CC[C@@H](Nc3cccc4cnccc34)C2)cc1` [Compound 2.026, (R)-N-(1-(4-(methylthio)benzyl)pyrrolidin-3-yl)isoquinolin-5-amine], the pIC50 in experiment [1] is 5.20. Further, the “Cell score at 1 μM” value in experiment [2] came out at 2.

Compound `O=C(COc1cccc(CN2CC[C@@H](Nc3cccc4cnccc34)C2)c1)N1CCOCC1` [Compound 2.043, (R)-2-(3-((3-(isoquinolin-5-ylamino)pyrrolidin-1-yl)methyl)phenoxy)-1-morpholinoethanone] showed a negative logarithm of the IC50 (pIC50) in experiment [1] of 6.42. Regarding `O=C(O)COc1cccc(CN2CC[C@@H](Nc3cccc4cnccc34)C2)c1` [Compound 2.044, (R)-2-(3-((3-(isoquinolin-5-ylamino)pyrrolidin-1-yl)methyl)phenoxy)acetic acid], in experiment [1], the pIC50 was 6.36.

The record behind these values is patent publication US8604218B2, “Cytoskeletal active rho kinase inhibitor compounds, composition and use” (Inspire Pharmaceuticals, Inc., priority 2006, dated 2013).
